Data taken from patent publication US12187758B2 (ROME Therapeutics, Inc., priority 2022, dated 2025).

Assays:
Type in all cases: cell-based
[1] = Mitochondria toxicity assay with PC3 cells, in-cell ELISA COX-1; conditions: 5 days treatment
Experimental: (§1) Exemplary compounds were tested for inhibition of expression of mitochondria DNA encoded proteins COX-1 […]. SDH-A (succinate dehydrogenase-A) is a control mitochondria protein encoded by nuclear DNA. Reduction in COX-1 expression indicates off target inhibition of mitochondria DNA synthesis which leads to mitochondrial toxicity. Assay procedures and results are described below.
(§2) PC3 cells were purchased from ATCC and cultured in F-12 Kaighn's modified medium (Hyclone), 10% heat-inactivated fetal bovine serum (Invitrogen), 1% Penicillin-Streptomycin (Invitrogen). PC3 cells were treated with a dose titration of a test compound on 96 well plates for 5 days at 37° C., 5% CO2 in a humidified incubator. The treatment plates are duplicated, one for in-cell ELISA for mitochondria proteins and one for cytotoxicity.
(§3) In-cell ELISA was performed to measure mitochondrial proteins using MitoBiogenesis In-Cell ELISA kit (Abcam) per manufacturer's instruction. The medium was aspirated from the compound treated cells, 100 μl per well of 4% paraformaldehyde (Solarbio) was added and cells were incubated at room temperature for 20 minutes. The cells were washed three times with PBS. 100 μl of 0.5% acetic acid was added per cell, and the cells were incubate at room temperature for 5 minutes. Cells were washed once with PBS. 100 μl per well of Permeabilization Buffer was added, and the cells incubate at room temperature for 30 minutes. The permeabilization buffer was removed and 200 μl per well 2× Blocking Buffer was added and the cells were incubated at room temperature for 2 hours. After removing the Blocking Buffer 100 μl per well of primary antibody to SDH-A or COX-1 was added, and the cells were incubated at 4° C. overnight. The primary antibody solution was removed and cells were washed 3 times with the Wash Buffer. 100 μl per well of AP- and HRP-labelled secondary antibodies was added, and the cells were incubated at room temperature for 1 hour. The cells were then washed 4 times with the Wash Buffer. For SDH-A detection, 100 μl per well AP Development Solution was added, and the cells were incubated at room temperature for 10 minutes. Cells were then read on CLARTO star^plus microplate reader (BMG Labtech) for kinetic readings at 405 nm for 5 minutes. […] The cells were then read on CLARTO star^plus microplate reader (BMG Labtech) for kinetic readings at 600 nm for 15 minutes.
(§4) In the table “A” represents values<1.0 μM; “B” represents values from >1.0 μM to ≤10.0 μM; “C” represents values from >10.0 μM to ≤50.0 μM; “D” represents values from >50.0 μM to ≤100.0 μM; and “E” represents values>100.0 μM.

[2] = tested on: SDH-A (succinate dehydrogenase-A); assay: Mitochondria toxicity assay with PC3 cells, in-cell ELISA SDH-A; conditions: 5 days treatment
Experimental: as §1, §2, §3, §4

PC3 cells = assay: Mitochondria toxicity assay with PC3 cells, cytotoxicity (Cell Titer Glo); conditions: Homo sapiens, PC-3, 120 h, 5 days treatment
Experimental: as §2
For the cytotoxicity assay, the medium from the cell viability plate was removed, 50 μL per well of Cell Titer Glo (Promega, G9683) was added. Then the cells incubated for 30 minutes at room temperature. Luminescence was read by Envision (PerkinElmer 2105).
as §4

Structure (SMILES) | IC50 [1] | IC50 [2] | IC50 (PC3 cells)
Nc1nc(F)nc2c1ncn2[C@H]1C[C@H](O)C(CO)(CO)O1 [Compound 10, ((3S,5R)-5-(6-amino-2-fluoro-9H-purin-9-yl)-3-hydroxytetrahydrofuran-2,2-diyl) dimethanol] | 1 to 10 µM | 1 to 10 µM | 10 to 50 µM
Cc1cn([C@H]2C[C@H](O)[C@](CO)(N=[N+]=[N-])O2)c(=O)[nH]c1=O [Compound 30, 1-((2R,4S,5R)-5-azido-4-hydroxy-5-(hydroxymethyl)tetrahydrofuran-2-yl)-5-methylpyrimidine-2,4(1H,3H)-dione] | > 100 µM | > 100 µM | > 100 µM
CO[C@]1(CO)O[C@@H](n2ccc(N)nc2=O)C[C@@H]1O [Compound 48, 4-amino-1-((2R,4S,5R)-4-hydroxy-5-(hydroxymethyl)-5-methoxytetrahydrofuran-2-yl)pyrimidin-2(1H)-one] | 1 to 10 µM | 1 to 10 µM | 10 to 50 µM
[N-]=[N+]=N[C@]1(CO)O[C@@H](n2ccc(N)nc2=O)C[C@@H]1O [Compound 49, 4-amino-1-((2R,4S,5R)-5-azido-4-hydroxy-5-(hydroxymethyl)tetrahydro-furan-2-yl)pyrimidin-2(1H)-one] | < 1 µM | < 1 µM | < 1 µM
CO[C@H]1C[C@H](n2ccc(N)nc2=O)O[C@@]1(CO)CCl [Compound 54, 4-amino-1-[(2R,4S,5R)-5-(chloromethyl)-5-(hydroxymethyl)-4-methoxyoxolan-2-yl]-3,4-dihydropyrimidin-2-one] | > 100 µM | > 100 µM | > 100 µM
Nc1ccn([C@H]2C[C@@H](O)[C@](CO)(CCl)O2)c(=O)n1 [Compound 59, 4-amino-1-[(2R,4R,5R)-5-(chloromethyl)-4-hydroxy-5-(hydroxymethyl)oxolan-2-yl] pyrimidin-2-one] | > 100 µM | > 100 µM | > 100 µM
Nc1nc(=O)n([C@H]2C[C@H](O)[C@](CO)(CCl)O2)cc1C(F)(F)F [Compound 71, 4-amino-1-((2R,4S,5R)-5-(chloromethyl)-4-hydroxy-5-(hydroxymethyl)tetrahydrofuran-2-yl)-5-(trifluoromethyl)pyrimidin-2(1H)-one] | > 100 µM | > 100 µM | > 100 µM
Nc1ncnn2c([C@H]3C[C@H](O)[C@](CO)(CF)O3)ccc12 [Compound 79, (2R,3S,5R)-5-(4-aminopyrrolo[2,1-f] [1,2,4]triazin-7-yl)-2-(fluoromethyl)-2-(hydroxymethyl) tetrahydrofuran-3-ol] | > 100 µM | > 100 µM | > 100 µM
Nc1nc2c(ncn2[C@@H]2O[C@@](CO)(CF)[C@@H](O)[C@@H]2F)c(=O)[nH]1 [Compound 83, 2-amino-9-((2R,3S,4R,5R)-3-fluoro-5-(fluoromethyl)-4-hydroxy-5-(hydroxymethyl)tetrahydrofuran-2-yl)-1,9-dihydro-6H-purin-6-one] | 10 to 50 µM | 10 to 50 µM | 10 to 50 µM
Nc1nc(F)nc2c1ncn2[C@@H]1O[C@@](CO)(CF)[C@@H](O)[C@@H]1F [Compound 84] | 10 to 50 µM | 50 to 100 µM | 10 to 50 µM
Nc1nc2c(ncn2[C@@H]2O[C@@](CO)(CCl)[C@@H](O)[C@@H]2O)c(=O)[nH]1 [Compound 94, 2-amino-9-[(2R,3S,4S,5R)-5-(chloromethyl)-3,4-dihydroxy-5-(hydroxymethyl)oxolan-2-yl]-1H-purin-6-one] | > 100 µM | > 100 µM | > 100 µM
Nc1nc(=O)n([C@@H]2O[C@@](CO)(C(F)(F)F)[C@@H](O)[C@@H]2O)cc1F [Compound 95, 4-amino-1-((2R,3S,4S,5R)-3,4-dihydroxy-5-(hydroxymethyl)-5-(trifluoromethyl)tetrahydrofuran-2-yl)-5-fluoropyrimidin-2(1H)-one] | > 100 µM | > 100 µM | > 100 µM
Nc1nc(=O)n([C@@H]2O[C@@](CO)(CI)[C@@H](O)[C@@H]2F)cc1F [Compound 129, 4-amino-5-fluoro-1-((2R,3S,4R,5R)-3-fluoro-4-hydroxy-5-(hydroxymethyl)-5-(iodomethyl)tetrahydrofuran-2-yl)pyrimidin-2(1H)-one] | > 100 µM | > 100 µM | > 100 µM
Nc1nc(=O)n([C@@H]2O[C@](/C=C\Cl)(CO)[C@@H](O)[C@@H]2F)cc1F [Compound 132, 4-amino-1-[(2R,3S,4R,5R)-5-(2-chloroethenyl)-3-fluoro-4-hydroxy-5(Z)-(hydroxymethyl)oxolan-2-yl]-5-fluoropyrimidin-2-one] | > 100 µM | > 100 µM | > 100 µM
CSC[C@]1(CO)O[C@@H](n2cc(F)c(N)nc2=O)[C@@H](F)[C@@H]1O [Compound 135, 4-amino-5-fluoro-1-[(2R,3S,4R,5R)-3-fluoro-4-hydroxy-5-(hydroxymethyl)-5-[(methylsulfanyl)methyl]oxolan-2-yl] pyrimidin-2-one] | 1 to 10 µM | 10 to 50 µM | 10 to 50 µM
NC(=O)[C@]1(CO)O[C@@H](n2cc(F)c(N)nc2=O)[C@@H](F)[C@@H]1O [Compound 138, (2R,3R,4S,5R)-5-(4-amino-5-fluoro-2-oxopyrimidin-1-yl)-4-fluoro-3-hydroxy-2-(hydroxymethyl) oxolane-2-carboxamide] | > 100 µM | > 100 µM | > 100 µM
NC[C@]1(CO)O[C@@H](n2cc(F)c(N)nc2=O)[C@@H](F)[C@@H]1O [Compound 139, 4-amino-1-[(2R,3S,4R,5R)-5-(aminomethyl)-3-fluoro-4-hydroxy-5-(hydroxymethyl)oxolan-2-yl]-5-fluoropyrimidin-2-one] | > 100 µM | > 100 µM | > 100 µM
CC(O)[C@]1(CO)O[C@@H](n2cc(F)c(=O)[nH]c2=O)[C@@H](F)[C@@H]1O (stereo partly drawn) [Compound 162, 5-fluoro-1-[(2R,3S,4R,5S)-3-fluoro-4-hydroxy-5-(1-hydroxyethyl)-5-(hydroxymethyl)oxolan-2-yl]-3H-pyrimidine-2,4-dione] | > 100 µM | > 100 µM | > 100 µM
O=c1[nH]c(=O)n([C@@H]2O[C@@](CO)(CCl)[C@@H](O)[C@@H]2F)cc1F [Compound 163, 1-[(2R,3S,4R,5R)-5-(chloromethyl)-3-fluoro-4-hydroxy-5-(hydroxymethyl)oxolan-2-yl]-5-fluoro-3H-pyrimidine-2,4-dione] | > 100 µM | > 100 µM | > 100 µM
N#C[C@]1(CO)O[C@@H](n2cc(F)c(N)nc2=O)[C@@H](F)[C@@H]1O [Compound 166] | > 100 µM | > 100 µM | > 100 µM
